Source: ChEMBL document CHEMBL1152576, “E-Combretastatin and E-resveratrol structural modifications: antimicrobial and cancer cell growth inhibitory beta-E-nitrostyrenes” (Bioorg Med Chem, 2009)
pIC50: −log10 of the molar value. Values after ≈ are worked out from the molar mass of the structure shown. Active and inactive are the calls of the source. The calls are words filed in the database; no cut-off is given here.

Tested on: Cryptococcus neoformans
Assay: Antimicrobial activity against Cryptococcus neoformans ATCC 90112 assessed clear zone in inhibition per disk by CLSI disk diffusion susceptibility assay
Format: functional
Settings: not given

MIC [µg] | Compound
>100 | COc1ccc(/C=C/[N+](=O)[O-])cc1OP(=O)([O-])[O-].[Na+].[Na+]
>100 | O=[N+]([O-])/C=C/c1ccc(OP(=O)([O-])[O-])cc1.[Na+].[Na+]

Compound | MIC [µg]
COc1cc(/C=C/[N+](=O)[O-])c(OC)c(OC)c1OC | 0.78

Tested on: Stenotrophomonas maltophilia
Assay: Antimicrobial activity against Stenotrophomonas maltophilia ATCC 13637 assessed clear zone in inhibition per disk by CLSI disk diffusion susceptibility assay
Format: functional
Settings: not given

MIC [µg] | Compound
>100 | COc1ccc(/C=C/[N+](=O)[O-])cc1OP(=O)([O-])[O-].[Na+].[Na+]
>100 | O=[N+]([O-])/C=C/c1ccc(OP(=O)([O-])[O-])cc1.[Na+].[Na+]

Compound | MIC [µg]
COc1cc(/C=C/[N+](=O)[O-])c(OC)c(OC)c1OC | 25

Tested on: SF-268
Assay: Cytotoxicity against human SF268 cells after 48 hrs by sulforhodamine B assay
Format: functional
Settings: not given

Compound | GI50
COc1cc(/C=C/[N+](=O)[O-])c(OC)c(OC)c1OC | inactive

Same assay, conditions: SF-268, 48 h

Compound | GI50 [µg/mL]
COc1ccc(/C=C/[N+](=O)[O-])cc1OP(=O)([O-])[O-].[Na+].[Na+] | 4.2
O=[N+]([O-])/C=C/c1ccc(OP(=O)([O-])[O-])cc1.[Na+].[Na+] | > 10

Tested on: SF-295
Assay: Cytotoxicity against human SF295 cells after 48 hrs by sulforhodamine B assay
Format: functional
Settings: not given

Compound | GI50
COc1cc(/C=C/[N+](=O)[O-])c(OC)c(OC)c1OC | inactive
COc1ccc(/C=C/[N+](=O)[O-])cc1OP(=O)([O-])[O-].[Na+].[Na+] | inactive
O=[N+]([O-])/C=C/c1ccc(OP(=O)([O-])[O-])cc1.[Na+].[Na+] | inactive

Tested on: Enterobacter cloacae
Assay: Antimicrobial activity against Enterobacter cloacae ATCC 13047 assessed clear zone in inhibition per disk by CLSI disk diffusion susceptibility assay
Format: functional
Settings: not given

MIC [µg] | Compound
>100 | COc1ccc(/C=C/[N+](=O)[O-])cc1OP(=O)([O-])[O-].[Na+].[Na+]
>100 | O=[N+]([O-])/C=C/c1ccc(OP(=O)([O-])[O-])cc1.[Na+].[Na+]

Compound | MIC [µg]
COc1cc(/C=C/[N+](=O)[O-])c(OC)c(OC)c1OC | >100

Tested on: Escherichia coli
Assay: Antimicrobial activity against Escherichia coli ATCC 25922 assessed clear zone in inhibition per disk by CLSI disk diffusion susceptibility assay
Format: functional
Settings: not given

MIC [µg] | Compound
>100 | COc1ccc(/C=C/[N+](=O)[O-])cc1OP(=O)([O-])[O-].[Na+].[Na+]
>100 | O=[N+]([O-])/C=C/c1ccc(OP(=O)([O-])[O-])cc1.[Na+].[Na+]

Compound | MIC [µg]
COc1cc(/C=C/[N+](=O)[O-])c(OC)c(OC)c1OC | 12.5

Tested on: A498
Assay: Cytotoxicity against human A498 cells after 48 hrs by sulforhodamine B assay
Format: functional
Settings: not given

Compound | GI50
COc1cc(/C=C/[N+](=O)[O-])c(OC)c(OC)c1OC | inactive
COc1ccc(/C=C/[N+](=O)[O-])cc1OP(=O)([O-])[O-].[Na+].[Na+] | inactive
O=[N+]([O-])/C=C/c1ccc(OP(=O)([O-])[O-])cc1.[Na+].[Na+] | inactive

Tested on: Neisseria gonorrhoeae
Assay: Antimicrobial activity against Neisseria gonorrhoeae ATCC 49226 assessed clear zone of inhibition measured per disk by CLSI disk diffusion susceptibility assay
Format: functional
Settings: not given

MIC [µg] | Compound
50 | COc1ccc(/C=C/[N+](=O)[O-])cc1OP(=O)([O-])[O-].[Na+].[Na+]
>100 | O=[N+]([O-])/C=C/c1ccc(OP(=O)([O-])[O-])cc1.[Na+].[Na+]

Compound | MIC [µg]
COc1cc(/C=C/[N+](=O)[O-])c(OC)c(OC)c1OC | <0.78

Tested on: Candida albicans
Assay: Antimicrobial activity against Candida albicans ATCC 90028 assessed clear zone in inhibition per disk by CLSI disk diffusion susceptibility assay
Format: functional
Settings: not given

MIC [µg] | Compound
>100 | COc1ccc(/C=C/[N+](=O)[O-])cc1OP(=O)([O-])[O-].[Na+].[Na+]
>100 | O=[N+]([O-])/C=C/c1ccc(OP(=O)([O-])[O-])cc1.[Na+].[Na+]

Compound | MIC [µg]
COc1cc(/C=C/[N+](=O)[O-])c(OC)c(OC)c1OC | 0.78

Tested on: P388
Assay: Cytotoxicity against mouse P388 cells after 48 hrs by sulforhodamine B assay
Format: functional
Settings: P388, 48 h, read-out: ED50 (the source's name)

Compound | EC50 [µg/mL]
COc1cc(/C=C/[N+](=O)[O-])c(OC)c(OC)c1OC | 1.3 (≈ 4.83 µM)
COc1ccc(/C=C/[N+](=O)[O-])cc1OP(=O)([O-])[O-].[Na+].[Na+] | 5.7
O=[N+]([O-])/C=C/c1ccc(OP(=O)([O-])[O-])cc1.[Na+].[Na+] | 47.8

Tested on: Staphylococcus aureus
Assay: Antimicrobial activity against Staphylococcus aureus ATCC 29213 assessed clear zone in inhibition per disk by CLSI disk diffusion susceptibility assay
Format: functional
Settings: not given

MIC [µg] | Compound
>100 | COc1ccc(/C=C/[N+](=O)[O-])cc1OP(=O)([O-])[O-].[Na+].[Na+]
>100 | O=[N+]([O-])/C=C/c1ccc(OP(=O)([O-])[O-])cc1.[Na+].[Na+]

Compound | MIC [µg]
COc1cc(/C=C/[N+](=O)[O-])c(OC)c(OC)c1OC | <0.78

Tested on: BXPC-3
Assay: Cytotoxicity against human BxPC3 cells after 48 hrs by sulforhodamine B assay
Format: functional
Settings: not given

Compound | GI50
COc1cc(/C=C/[N+](=O)[O-])c(OC)c(OC)c1OC | inactive

Same assay, conditions: BXPC-3, 48 h

Compound | GI50 [µg/mL]
COc1ccc(/C=C/[N+](=O)[O-])cc1OP(=O)([O-])[O-].[Na+].[Na+] | > 10
O=[N+]([O-])/C=C/c1ccc(OP(=O)([O-])[O-])cc1.[Na+].[Na+] | > 10

Tested on: Enterococcus faecalis
Assay: Antimicrobial activity against Enterococcus faecalis ATCC 29212 assessed clear zone in inhibition per disk by CLSI disk diffusion susceptibility assay
Format: functional
Settings: not given

MIC [µg] | Compound
>100 | COc1ccc(/C=C/[N+](=O)[O-])cc1OP(=O)([O-])[O-].[Na+].[Na+]
>100 | O=[N+]([O-])/C=C/c1ccc(OP(=O)([O-])[O-])cc1.[Na+].[Na+]

Compound | MIC [µg]
COc1cc(/C=C/[N+](=O)[O-])c(OC)c(OC)c1OC | 3.12

Tested on: MCF7
Assay: Cytotoxicity against human MCF7 cells after 48 hrs by sulforhodamine B assay
Format: functional
Settings: not given

Compound | GI50
COc1cc(/C=C/[N+](=O)[O-])c(OC)c(OC)c1OC | inactive

Same assay, conditions: MCF7, 48 h

Compound | GI50 [µg/mL]
COc1ccc(/C=C/[N+](=O)[O-])cc1OP(=O)([O-])[O-].[Na+].[Na+] | 4.3
O=[N+]([O-])/C=C/c1ccc(OP(=O)([O-])[O-])cc1.[Na+].[Na+] | > 10

Tested on: NCI-H460
Assay: Cytotoxicity against human NCI-H460 cells after 48 hrs by sulforhodamine B assay
Format: functional
Settings: not given

Compound | GI50
COc1cc(/C=C/[N+](=O)[O-])c(OC)c(OC)c1OC | inactive

Same assay, conditions: NCI-H460, 48 h

Compound | GI50 [µg/mL]
COc1ccc(/C=C/[N+](=O)[O-])cc1OP(=O)([O-])[O-].[Na+].[Na+] | 5.8
O=[N+]([O-])/C=C/c1ccc(OP(=O)([O-])[O-])cc1.[Na+].[Na+] | > 10

Tested on: not listed separately
Assay: Inhibition of tubulin polymerization
Settings: not given

pIC50 | Compound
4.74 | COc1ccc(/C=C/[N+](=O)[O-])cc1OP(=O)([O-])[O-].[Na+].[Na+]
< 4.40 | O=[N+]([O-])/C=C/c1ccc(OP(=O)([O-])[O-])cc1.[Na+].[Na+]

Compound | pIC50
COc1cc(/C=C/[N+](=O)[O-])c(OC)c(OC)c1OC | 5.27

Tested on: Streptococcus pneumoniae
Assay: Antimicrobial activity against Streptococcus pneumoniae ATCC 6303 assessed clear zone in inhibition per disk by CLSI disk diffusion susceptibility assay
Format: functional
Settings: not given

MIC [µg] | Compound
>100 | COc1ccc(/C=C/[N+](=O)[O-])cc1OP(=O)([O-])[O-].[Na+].[Na+]
>100 | O=[N+]([O-])/C=C/c1ccc(OP(=O)([O-])[O-])cc1.[Na+].[Na+]

Compound | MIC [µg]
COc1cc(/C=C/[N+](=O)[O-])c(OC)c(OC)c1OC | 6.25

Tested on: Micrococcus luteus
Assay: Antimicrobial activity against Micrococcus luteus Presque Isle 456 assessed clear zone in inhibition per disk by CLSI disk diffusion susceptibility assay
Format: functional
Settings: not given

MIC [µg] | Compound
>100 | COc1ccc(/C=C/[N+](=O)[O-])cc1OP(=O)([O-])[O-].[Na+].[Na+]
>100 | O=[N+]([O-])/C=C/c1ccc(OP(=O)([O-])[O-])cc1.[Na+].[Na+]

Compound | MIC [µg]
COc1cc(/C=C/[N+](=O)[O-])c(OC)c(OC)c1OC | 1.56

Tested on: DU-145
Assay: Cytotoxicity against human DU145 cells after 48 hrs by sulforhodamine B assay
Format: functional
Settings: not given

Compound | GI50
COc1cc(/C=C/[N+](=O)[O-])c(OC)c(OC)c1OC | inactive

Same assay, conditions: DU-145, 48 h

Compound | GI50 [µg/mL]
COc1ccc(/C=C/[N+](=O)[O-])cc1OP(=O)([O-])[O-].[Na+].[Na+] | 4
O=[N+]([O-])/C=C/c1ccc(OP(=O)([O-])[O-])cc1.[Na+].[Na+] | 57.8

Tested on: SK-MEL-5
Assay: Cytotoxicity against human SK-MEL-5 cells after 48 hrs by sulforhodamine B assay
Format: functional
Settings: not given

Compound | GI50
COc1cc(/C=C/[N+](=O)[O-])c(OC)c(OC)c1OC | inactive
COc1ccc(/C=C/[N+](=O)[O-])cc1OP(=O)([O-])[O-].[Na+].[Na+] | inactive
O=[N+]([O-])/C=C/c1ccc(OP(=O)([O-])[O-])cc1.[Na+].[Na+] | inactive

Tested on: KM-20L2
Assay: Cytotoxicity against human KM20L2 cells after 48 hrs by sulforhodamine B assay
Format: functional
Settings: not given

Compound | GI50
COc1cc(/C=C/[N+](=O)[O-])c(OC)c(OC)c1OC | inactive

Same assay, conditions: KM-20L2, 48 h

Compound | GI50 [µg/mL]
COc1ccc(/C=C/[N+](=O)[O-])cc1OP(=O)([O-])[O-].[Na+].[Na+] | > 10
O=[N+]([O-])/C=C/c1ccc(OP(=O)([O-])[O-])cc1.[Na+].[Na+] | > 10

Tested on: OVCAR-3
Assay: Cytotoxicity against human OVCAR-3 cells after 48 hrs by sulforhodamine B assay
Format: functional
Settings: not given

Compound | GI50
COc1cc(/C=C/[N+](=O)[O-])c(OC)c(OC)c1OC | inactive
COc1ccc(/C=C/[N+](=O)[O-])cc1OP(=O)([O-])[O-].[Na+].[Na+] | inactive
O=[N+]([O-])/C=C/c1ccc(OP(=O)([O-])[O-])cc1.[Na+].[Na+] | inactive
